± gives the expanded uncertainty stated by the source.
Experiment: activity coefficient (dimensionless); of the first substance listed, at infinite dilution; xn = mol fraction of the nth substance listed
Conditions: 101.33 kPa, Liquid, Chromatography, x1 = 0

Compound | activity coefficient (328.15 K) | activity coefficient (338.15 K) | activity coefficient (348.15 K) | activity coefficient (358.15 K) | activity coefficient (368.15 K) | activity coefficient (378.15 K) | activity coefficient (318.15 K)
CC(C)OC(C)C [diisopropyl ether] + CCCCCCCCCCCC[N+](C)(C)CCOc1ccccc1.N#C[N-]C#N | 4.03 ± 0.27 | 4.12 ± 0.28 | 4.22 ± 0.29 | 4.29 ± 0.29 | 4.36 ± 0.3 | 4.43 ± 0.3 | –
CC(C)OC(C)C [diisopropyl ether] + CCCCCCCCCCCC[N+](C)(C)CCOc1ccccc1.O=S(=O)([N-]S(=O)(=O)C(F)(F)F)C(F)(F)F | 1.97 ± 0.13 | 2.03 ± 0.14 | 2.1 ± 0.14 | 2.16 ± 0.15 | 2.22 ± 0.15 | – | 1.9 ± 0.13
CCCOCCC [dipropyl ether] + CCCCCCCCCCCC[N+](C)(C)CCOc1ccccc1.N#C[N-]C#N | 3.36 ± 0.23 | 3.46 ± 0.24 | 3.54 ± 0.24 | 3.61 ± 0.25 | 3.68 ± 0.25 | 3.76 ± 0.26 | –
CCCOCCC [dipropyl ether] + CCCCCCCCCCCC[N+](C)(C)CCOc1ccccc1.O=S(=O)([N-]S(=O)(=O)C(F)(F)F)C(F)(F)F | 1.85 ± 0.12 | 1.92 ± 0.13 | 1.99 ± 0.14 | 2.06 ± 0.14 | 2.13 ± 0.14 | – | 1.78 ± 0.12
CCO [ethanol] + CCCCCCCCCCCC[N+](C)(C)CCOc1ccccc1.N#C[N-]C#N | 0.411 ± 0.034 | 0.421 ± 0.035 | 0.429 ± 0.035 | 0.438 ± 0.035 | 0.446 ± 0.036 | 0.453 ± 0.036 | –
CCO [ethanol] + CCCCCCCCCCCC[N+](C)(C)CCOc1ccccc1.O=S(=O)([N-]S(=O)(=O)C(F)(F)F)C(F)(F)F | 1.2 ± 0.08 | 1.16 ± 0.07 | 1.12 ± 0.07 | 1.09 ± 0.07 | 1.06 ± 0.07 | – | 1.24 ± 0.08
CCOC(C)=O [ethyl acetate] + CCCCCCCCCCCC[N+](C)(C)CCOc1ccccc1.N#C[N-]C#N | 1.2 ± 0.08 | 1.24 ± 0.08 | 1.27 ± 0.08 | 1.31 ± 0.09 | 1.34 ± 0.09 | 1.37 ± 0.09 | –
CCOC(C)=O [ethyl acetate] + CCCCCCCCCCCC[N+](C)(C)CCOc1ccccc1.O=S(=O)([N-]S(=O)(=O)C(F)(F)F)C(F)(F)F | 0.533 ± 0.039 | 0.563 ± 0.04 | 0.592 ± 0.042 | 0.62 ± 0.043 | 0.648 ± 0.044 | – | 0.505 ± 0.038
CCc1ccccc1 [ethylbenzene] + CCCCCCCCCCCC[N+](C)(C)CCOc1ccccc1.N#C[N-]C#N | 1.4 ± 0.09 | 1.45 ± 0.1 | 1.5 ± 0.1 | 1.55 ± 0.1 | 1.6 ± 0.11 | 1.64 ± 0.11 | –
CCc1ccccc1 [ethylbenzene] + CCCCCCCCCCCC[N+](C)(C)CCOc1ccccc1.O=S(=O)([N-]S(=O)(=O)C(F)(F)F)C(F)(F)F | 0.948 ± 0.06 | 0.995 ± 0.062 | 1.04 ± 0.07 | 1.09 ± 0.07 | 1.13 ± 0.07 | – | 0.9 ± 0.057
CCCCCCC [heptane] + CCCCCCCCCCCC[N+](C)(C)CCOc1ccccc1.N#C[N-]C#N | 5.99 ± 0.41 | 6.08 ± 0.41 | 6.16 ± 0.42 | 6.24 ± 0.43 | 6.33 ± 0.43 | 6.41 ± 0.44 | –
CCCCCCC [heptane] + CCCCCCCCCCCC[N+](C)(C)CCOc1ccccc1.O=S(=O)([N-]S(=O)(=O)C(F)(F)F)C(F)(F)F | 3.52 ± 0.24 | 3.6 ± 0.25 | 3.68 ± 0.25 | 3.75 ± 0.26 | 3.83 ± 0.26 | – | 3.44 ± 0.23
C=CCCCC [hex-1-ene] + CCCCCCCCCCCC[N+](C)(C)CCOc1ccccc1.N#C[N-]C#N | 3.59 ± 0.24 | 3.68 ± 0.25 | 3.76 ± 0.26 | 3.84 ± 0.26 | 3.9 ± 0.27 | 3.99 ± 0.27 | –
C=CCCCC [hex-1-ene] + CCCCCCCCCCCC[N+](C)(C)CCOc1ccccc1.O=S(=O)([N-]S(=O)(=O)C(F)(F)F)C(F)(F)F | 2.24 ± 0.15 | 2.28 ± 0.16 | 2.32 ± 0.16 | 2.36 ± 0.16 | 2.41 ± 0.16 | – | 2.19 ± 0.15
CCCCCC [hexane] + CCCCCCCCCCCC[N+](C)(C)CCOc1ccccc1.N#C[N-]C#N | 5.12 ± 0.35 | 5.22 ± 0.36 | 5.3 ± 0.36 | 5.41 ± 0.37 | 5.53 ± 0.38 | 5.6 ± 0.38 | –
CCCCCC [hexane] + CCCCCCCCCCCC[N+](C)(C)CCOc1ccccc1.O=S(=O)([N-]S(=O)(=O)C(F)(F)F)C(F)(F)F | 2.99 ± 0.2 | 3.06 ± 0.21 | 3.15 ± 0.21 | 3.21 ± 0.22 | 3.28 ± 0.22 | – | 2.91 ± 0.2

Compound | activity coefficient (328.15 K) | activity coefficient (338.15 K) | activity coefficient (348.15 K) | activity coefficient (358.15 K) | activity coefficient (368.15 K) | activity coefficient (378.15 K) | activity coefficient (318.15 K)
CC(C)c1ccccc1 [isopropylbenzene] + CCCCCCCCCCCC[N+](C)(C)CCOc1ccccc1.N#C[N-]C#N | 1.82 ± 0.12 | 1.87 ± 0.13 | 1.94 ± 0.13 | 2 ± 0.14 | 2.05 ± 0.14 | 2.11 ± 0.14 | –
CC(C)c1ccccc1 [isopropylbenzene] + CCCCCCCCCCCC[N+](C)(C)CCOc1ccccc1.O=S(=O)([N-]S(=O)(=O)C(F)(F)F)C(F)(F)F | 1.19 ± 0.08 | 1.24 ± 0.08 | 1.29 ± 0.08 | 1.34 ± 0.09 | 1.39 ± 0.09 | – | 1.14 ± 0.07
CO [methanol] + CCCCCCCCCCCC[N+](C)(C)CCOc1ccccc1.N#C[N-]C#N | 0.316 ± 0.031 | 0.324 ± 0.032 | 0.332 ± 0.032 | 0.339 ± 0.032 | 0.346 ± 0.032 | 0.353 ± 0.032 | –
CO [methanol] + CCCCCCCCCCCC[N+](C)(C)CCOc1ccccc1.O=S(=O)([N-]S(=O)(=O)C(F)(F)F)C(F)(F)F | 1.06 ± 0.07 | 1.04 ± 0.07 | 1.01 ± 0.06 | 0.982 ± 0.062 | 0.964 ± 0.061 | – | 1.1 ± 0.07
CCCC(=O)OC [methyl butanoate] + CCCCCCCCCCCC[N+](C)(C)CCOc1ccccc1.N#C[N-]C#N | 1.29 ± 0.08 | 1.34 ± 0.09 | 1.38 ± 0.09 | 1.42 ± 0.09 | 1.46 ± 0.1 | 1.5 ± 0.1 | –
CCCC(=O)OC [methyl butanoate] + CCCCCCCCCCCC[N+](C)(C)CCOc1ccccc1.O=S(=O)([N-]S(=O)(=O)C(F)(F)F)C(F)(F)F | 0.601 ± 0.042 | 0.636 ± 0.044 | 0.672 ± 0.046 | 0.706 ± 0.047 | 0.741 ± 0.049 | – | 0.565 ± 0.041
COC(C)=O [methyl ethanoate] + CCCCCCCCCCCC[N+](C)(C)CCOc1ccccc1.N#C[N-]C#N | 1.03 ± 0.06 | 1.06 ± 0.07 | 1.09 ± 0.07 | 1.12 ± 0.07 | 1.14 ± 0.07 | 1.17 ± 0.07 | –
COC(C)=O [methyl ethanoate] + CCCCCCCCCCCC[N+](C)(C)CCOc1ccccc1.O=S(=O)([N-]S(=O)(=O)C(F)(F)F)C(F)(F)F | 0.503 ± 0.038 | 0.534 ± 0.039 | 0.563 ± 0.04 | 0.595 ± 0.042 | 0.628 ± 0.043 | – | 0.474 ± 0.037
CCC(=O)OC [methyl propanoate] + CCCCCCCCCCCC[N+](C)(C)CCOc1ccccc1.N#C[N-]C#N | 1.13 ± 0.07 | 1.16 ± 0.07 | 1.19 ± 0.08 | 1.22 ± 0.08 | 1.25 ± 0.08 | 1.28 ± 0.08 | –
CCC(=O)OC [methyl propanoate] + CCCCCCCCCCCC[N+](C)(C)CCOc1ccccc1.O=S(=O)([N-]S(=O)(=O)C(F)(F)F)C(F)(F)F | 0.53 ± 0.039 | 0.566 ± 0.041 | 0.599 ± 0.042 | 0.633 ± 0.044 | 0.669 ± 0.045 | – | 0.498 ± 0.038
CC1CCCCC1 [methylcyclohexane] + CCCCCCCCCCCC[N+](C)(C)CCOc1ccccc1.N#C[N-]C#N | 3.67 ± 0.25 | 3.73 ± 0.25 | 3.78 ± 0.26 | 3.85 ± 0.26 | 3.9 ± 0.27 | 3.95 ± 0.27 | –
CC1CCCCC1 [methylcyclohexane] + CCCCCCCCCCCC[N+](C)(C)CCOc1ccccc1.O=S(=O)([N-]S(=O)(=O)C(F)(F)F)C(F)(F)F | 2.39 ± 0.16 | 2.43 ± 0.17 | 2.47 ± 0.17 | 2.51 ± 0.17 | 2.55 ± 0.17 | – | 2.35 ± 0.16
CCCCCCCCC [nonane] + CCCCCCCCCCCC[N+](C)(C)CCOc1ccccc1.N#C[N-]C#N | 7.69 ± 0.52 | 7.83 ± 0.53 | 7.95 ± 0.54 | 8.08 ± 0.55 | 8.21 ± 0.56 | 8.34 ± 0.57 | –
CCCCCCCCC [nonane] + CCCCCCCCCCCC[N+](C)(C)CCOc1ccccc1.O=S(=O)([N-]S(=O)(=O)C(F)(F)F)C(F)(F)F | 4.87 ± 0.33 | 4.96 ± 0.34 | 5.03 ± 0.34 | 5.12 ± 0.35 | 5.18 ± 0.35 | – | 4.77 ± 0.33
C=CCCCCCC [oct-1-ene] + CCCCCCCCCCCC[N+](C)(C)CCOc1ccccc1.N#C[N-]C#N | 4.87 ± 0.33 | 4.98 ± 0.34 | 5.09 ± 0.35 | 5.2 ± 0.35 | 5.29 ± 0.36 | 5.38 ± 0.37 | –

Reference: the NIST ThermoML archive (doi:10.1016/j.fluid.2018.09.024)
